# Results from patent US6846844B2, “Compounds and compositions for delivering active agents” (Emisphere Technologies, Inc., priority 2000, dated 2005).
# What was measured:
# [1] = Intracolonic delivery of heparin with delivery agent compound, activated partial thromboplastin time (APTT); format: in vivo, Sprague-Dawley rats; details: rats, intracolonic (IC); compound dose 50 mg/kg, heparin dose 25 mg/kg, volume dose 1 ml/kg; five rats; baseline about 20 sec
# Protocol: Intracolonic (IC) dosing solutions containing a delivery agent compound and heparin sodium USP in 25% aqueous propylene glycol were prepared. Either the sodium salt of the delivery agent compound was used or the free acid was converted to the sodium salt with one equivalent of sodium hydroxide. Typically, the delivery agent compound and heparin (about 166-182 IU/mg) were mixed by vortex as dry powders. This dry mixture was dissolved in 25% v/v aqueous propylene glycol, vortexed and placed in a sonicator (about 37° C.). The pH was adjusted to about 7 (6.5 to 8.5) with aqueous NaOH (2N). The dosing solution was sonicated to produce a clear solution. The final volume was adjusted to 3.0 mL. The final delivery agent compound dose, heparin dose and volume dose amounts are listed below in Table 2.
# The typical dosing and sampling protocols were as follows. […]
# Citrated blood samples were collected by cardiac puncture following the administration of ketamine (88 mg/kg), typically at time=0.25, 0.5, 1.0 and 1.5 hours. Heparin activity was determined by utilizing the activated partial thromboplastin time (APTT) according to the method of Henry, J. B., Clinical Diagnosis and Management by Laboratory Methods, Philadelphia, Pa., W. B. Saunders (1979). […]
melting point [°C],Compound,Mean Peak APTT (sec) ± SD [1] [s]
171 to 173,"Cc1c(Cl)cc(NC(=O)CC(C)CC(=O)O)c(O)c1Cl (stereo not drawn) [Compound 1, 3R-5-[(3,5-dichloro-2-hydroxy-4-methylphenyl)amino]-3-methyl-5-oxopentanoic acid]",205.8 ± 32.4
117 to 118,"Cc1ccc(NC(=O)C[C@@H](C)CC(=O)O)c(O)c1 [Compound 2, (3R)-5-[(2-hydroxy-4-methylphenyl)amino]-3-methyl-5-oxo-pentanoic acid]",
